22 molecules from ChEMBL document CHEMBL5291721, “A preclinical secondary pharmacology resource illuminates target-adverse drug reaction associations of marketed drugs” (Nat Commun, 2023) can be followed below.

The target of test [1] is Sodium-dependent serotonin transporter (Homo sapiens, UniProt P31645).
In a further test the target is T1, Adenosine receptor A1 (Homo sapiens, UniProt P30542).
T1 sequence (P30542 whole entry): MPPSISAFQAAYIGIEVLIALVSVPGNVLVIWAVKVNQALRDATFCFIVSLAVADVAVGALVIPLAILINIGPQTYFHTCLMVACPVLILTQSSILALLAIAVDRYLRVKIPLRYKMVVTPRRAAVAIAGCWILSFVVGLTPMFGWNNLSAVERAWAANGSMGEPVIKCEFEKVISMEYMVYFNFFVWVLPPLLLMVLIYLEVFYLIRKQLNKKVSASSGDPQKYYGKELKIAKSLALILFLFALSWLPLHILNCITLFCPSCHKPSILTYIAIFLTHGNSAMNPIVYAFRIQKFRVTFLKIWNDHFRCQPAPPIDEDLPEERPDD

The target in the next test is T2, B2 bradykinin receptor (Homo sapiens, UniProt P30411).
T2 sequence (P30411 whole entry): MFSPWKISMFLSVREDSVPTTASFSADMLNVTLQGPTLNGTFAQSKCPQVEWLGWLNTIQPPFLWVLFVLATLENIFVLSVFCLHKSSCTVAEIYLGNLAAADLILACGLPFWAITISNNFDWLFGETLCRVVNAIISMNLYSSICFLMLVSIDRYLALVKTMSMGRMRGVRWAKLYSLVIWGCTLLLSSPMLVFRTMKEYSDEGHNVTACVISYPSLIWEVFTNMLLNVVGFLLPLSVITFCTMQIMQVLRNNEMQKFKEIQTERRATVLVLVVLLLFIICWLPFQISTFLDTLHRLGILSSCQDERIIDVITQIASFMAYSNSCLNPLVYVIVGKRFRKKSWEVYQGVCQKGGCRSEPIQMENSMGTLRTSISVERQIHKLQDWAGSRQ

For a further test, the target named is T3, Estrogen receptor (Homo sapiens, UniProt P03372).
T3 sequence (P03372 whole entry): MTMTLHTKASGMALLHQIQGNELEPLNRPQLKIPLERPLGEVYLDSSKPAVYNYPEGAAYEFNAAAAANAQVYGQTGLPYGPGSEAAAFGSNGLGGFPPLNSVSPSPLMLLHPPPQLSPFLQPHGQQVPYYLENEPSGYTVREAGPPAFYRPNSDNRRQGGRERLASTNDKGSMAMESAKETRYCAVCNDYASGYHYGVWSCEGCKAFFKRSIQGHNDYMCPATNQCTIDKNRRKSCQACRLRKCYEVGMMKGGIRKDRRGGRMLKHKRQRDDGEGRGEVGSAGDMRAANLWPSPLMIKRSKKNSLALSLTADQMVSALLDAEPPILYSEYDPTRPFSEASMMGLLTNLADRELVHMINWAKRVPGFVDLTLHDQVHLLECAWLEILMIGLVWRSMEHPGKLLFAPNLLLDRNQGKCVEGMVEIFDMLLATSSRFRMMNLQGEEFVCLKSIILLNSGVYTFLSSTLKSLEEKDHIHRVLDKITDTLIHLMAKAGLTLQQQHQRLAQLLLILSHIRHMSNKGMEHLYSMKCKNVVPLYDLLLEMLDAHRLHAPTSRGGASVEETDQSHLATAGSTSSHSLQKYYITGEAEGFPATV

Test [2] deals with T4, Muscarinic acetylcholine receptor M2 (Homo sapiens, UniProt P08172).
T4 sequence (P08172 whole entry): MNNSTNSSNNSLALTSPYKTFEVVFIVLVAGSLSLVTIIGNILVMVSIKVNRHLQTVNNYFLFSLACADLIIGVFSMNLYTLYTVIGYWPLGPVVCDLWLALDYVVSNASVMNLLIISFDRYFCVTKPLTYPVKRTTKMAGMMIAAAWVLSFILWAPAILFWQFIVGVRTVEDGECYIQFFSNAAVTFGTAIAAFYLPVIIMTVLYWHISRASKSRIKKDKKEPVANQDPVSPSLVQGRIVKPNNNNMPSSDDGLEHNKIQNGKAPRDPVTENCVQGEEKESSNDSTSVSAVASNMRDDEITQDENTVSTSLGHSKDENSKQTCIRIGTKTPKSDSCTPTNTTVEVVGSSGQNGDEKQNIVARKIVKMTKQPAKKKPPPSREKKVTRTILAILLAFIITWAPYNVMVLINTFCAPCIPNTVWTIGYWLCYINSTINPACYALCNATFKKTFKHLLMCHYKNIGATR
It counts as functional, cell-based.

For another test, the target named is Cannabinoid receptor 1 (Homo sapiens, UniProt P21554). It is filed as functional, cell-based.
Another test deals with Histamine H2 receptor (Homo sapiens, UniProt P25021). It counts as functional, cell-based.
The target of a further test is T5, Progesterone receptor (Homo sapiens, UniProt P06401).
T5 sequence (P06401 whole entry): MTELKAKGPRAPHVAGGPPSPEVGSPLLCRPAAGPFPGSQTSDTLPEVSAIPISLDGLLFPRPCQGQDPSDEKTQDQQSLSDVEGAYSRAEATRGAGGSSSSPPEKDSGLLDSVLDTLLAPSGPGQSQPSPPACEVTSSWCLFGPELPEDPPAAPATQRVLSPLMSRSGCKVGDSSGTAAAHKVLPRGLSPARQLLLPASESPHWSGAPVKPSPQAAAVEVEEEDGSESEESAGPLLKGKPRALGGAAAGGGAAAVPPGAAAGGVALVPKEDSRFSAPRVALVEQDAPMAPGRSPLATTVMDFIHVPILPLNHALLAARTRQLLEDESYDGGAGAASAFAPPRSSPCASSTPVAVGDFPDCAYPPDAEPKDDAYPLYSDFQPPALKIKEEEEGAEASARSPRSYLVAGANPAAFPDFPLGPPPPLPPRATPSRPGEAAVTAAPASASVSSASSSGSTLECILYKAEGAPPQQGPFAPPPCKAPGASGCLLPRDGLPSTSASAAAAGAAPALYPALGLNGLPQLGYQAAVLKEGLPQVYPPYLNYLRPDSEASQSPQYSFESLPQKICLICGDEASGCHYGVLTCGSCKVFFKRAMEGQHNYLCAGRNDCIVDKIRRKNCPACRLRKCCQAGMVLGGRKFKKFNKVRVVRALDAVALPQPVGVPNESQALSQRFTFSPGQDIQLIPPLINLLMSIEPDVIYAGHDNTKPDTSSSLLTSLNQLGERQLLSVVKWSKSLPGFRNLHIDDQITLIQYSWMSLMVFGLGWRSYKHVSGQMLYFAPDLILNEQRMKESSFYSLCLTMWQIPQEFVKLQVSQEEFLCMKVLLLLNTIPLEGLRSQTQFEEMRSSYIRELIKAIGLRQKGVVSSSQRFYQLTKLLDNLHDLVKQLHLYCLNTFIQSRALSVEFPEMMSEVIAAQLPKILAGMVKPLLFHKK
It counts as functional.
Note: assay procedure not described here.

Cannabinoid receptor 1, sequence (P21554 whole entry): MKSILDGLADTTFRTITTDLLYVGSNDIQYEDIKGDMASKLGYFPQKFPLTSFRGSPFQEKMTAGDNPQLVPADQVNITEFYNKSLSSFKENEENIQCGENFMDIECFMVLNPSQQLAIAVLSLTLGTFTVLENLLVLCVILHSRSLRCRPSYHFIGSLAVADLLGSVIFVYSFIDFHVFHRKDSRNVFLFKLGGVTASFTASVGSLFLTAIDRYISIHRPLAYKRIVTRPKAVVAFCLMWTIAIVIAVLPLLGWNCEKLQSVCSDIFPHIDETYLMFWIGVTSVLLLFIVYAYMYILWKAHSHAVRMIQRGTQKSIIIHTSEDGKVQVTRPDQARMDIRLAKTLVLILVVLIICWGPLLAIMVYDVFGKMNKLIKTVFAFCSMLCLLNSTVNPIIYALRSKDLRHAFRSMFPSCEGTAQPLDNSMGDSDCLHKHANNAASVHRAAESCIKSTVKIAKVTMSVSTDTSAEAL
Histamine H2 receptor, sequence (P25021 whole entry): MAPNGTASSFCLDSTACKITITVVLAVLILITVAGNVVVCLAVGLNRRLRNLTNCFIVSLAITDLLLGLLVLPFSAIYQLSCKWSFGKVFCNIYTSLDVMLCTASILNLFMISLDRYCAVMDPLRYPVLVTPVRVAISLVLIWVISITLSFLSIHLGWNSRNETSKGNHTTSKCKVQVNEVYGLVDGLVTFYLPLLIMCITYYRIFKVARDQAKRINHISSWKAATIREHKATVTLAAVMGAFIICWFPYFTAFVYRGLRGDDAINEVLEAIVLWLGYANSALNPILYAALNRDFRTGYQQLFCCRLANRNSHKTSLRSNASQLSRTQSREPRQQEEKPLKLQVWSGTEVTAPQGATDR
Sodium-dependent serotonin transporter, sequence (P31645 whole entry): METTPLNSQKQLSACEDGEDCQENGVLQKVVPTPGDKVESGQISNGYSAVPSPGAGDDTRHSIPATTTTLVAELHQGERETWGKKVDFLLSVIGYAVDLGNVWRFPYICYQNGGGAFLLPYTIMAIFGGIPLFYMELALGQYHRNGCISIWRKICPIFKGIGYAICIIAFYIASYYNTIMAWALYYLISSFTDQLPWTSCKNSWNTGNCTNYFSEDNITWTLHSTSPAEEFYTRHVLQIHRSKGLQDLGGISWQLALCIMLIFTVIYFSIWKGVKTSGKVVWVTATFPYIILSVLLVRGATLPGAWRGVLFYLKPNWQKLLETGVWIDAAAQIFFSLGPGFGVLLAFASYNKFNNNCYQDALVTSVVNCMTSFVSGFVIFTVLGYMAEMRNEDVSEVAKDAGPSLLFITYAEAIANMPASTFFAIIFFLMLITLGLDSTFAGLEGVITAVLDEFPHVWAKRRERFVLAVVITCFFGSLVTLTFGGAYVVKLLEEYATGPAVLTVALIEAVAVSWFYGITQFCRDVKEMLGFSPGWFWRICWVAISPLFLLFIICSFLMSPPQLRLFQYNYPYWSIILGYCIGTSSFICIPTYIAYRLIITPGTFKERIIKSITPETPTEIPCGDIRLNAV

In general, AC50 refers to the concentration giving half of the maximal activity seen. Regarding `COc1cccc(C(=O)CCN[C@@H](C)[C@H](O)c2ccccc2)c1` [OXYFEDRINE], the activity in test [1] was half-maximal at 4.77 µM (AC50).

Regarding `O=C(/C=C/c1cccc(S(=O)(=O)Nc2ccccc2)c1)NO` [BELINOSTAT], the AC50 at Adenosine receptor A1 was greater than 30 µM; at B2 bradykinin receptor it was greater than 30 µM; at Estrogen receptor, 27.9 µM.

As to `CCOC(=O)c1c(CSc2ccccc2)n(C)c2cc(Br)c(O)c(CN(C)C)c12` [UMIFENOVIR], the AC50 (on Adenosine receptor A1; at B2 bradykinin receptor; in test [2]; on Cannabinoid receptor 1; on Histamine H2 receptor; on Progesterone receptor) was greater than 30 µM in each case.

In the case of `C[C@]12C=CC(=O)C=C1CC[C@@H]1[C@@H]2CC[C@]2(C)OC(=O)CC[C@@H]12` [TESTOLACTONE], the AC50 on Adenosine receptor A1 was greater than 10 µM; at B2 bradykinin receptor it was greater than 10 µM; in test [2], greater than 10 µM; on Cannabinoid receptor 1, greater than 30 µM; on Histamine H2 receptor it was greater than 10 µM; at Progesterone receptor, greater than 10 µM.

In turn, `C[C@H](CCC(=O)O)[C@H]1CC[C@H]2[C@@H]3[C@H](O)C[C@@H]4C[C@H](O)CC[C@]4(C)[C@H]3C[C@H](O)[C@]12C` [CHOLIC ACID] had an AC50 on Estrogen receptor greater than 30 µM.

With `CCCN1CC(NS(=O)(=O)N(CC)CC)CC2Cc3c(O)cccc3CC21` (stereo not given) [QUINAGOLIDE], the AC50 (on Adenosine receptor A1; on B2 bradykinin receptor; in test [2]; on Cannabinoid receptor 1; at Histamine H2 receptor; on Progesterone receptor) was greater than 30 µM throughout.

As for `O=C1c2ccccc2C(=O)C1c1ccccc1` [PHENINDIONE], the AC50 at Adenosine receptor A1 was greater than 10 µM; on B2 bradykinin receptor, greater than 10 µM; in test [2], greater than 10 µM; on Cannabinoid receptor 1 it was greater than 30 µM; on Histamine H2 receptor, greater than 10 µM; on Progesterone receptor, greater than 10 µM.

As to `CCC1(c2ccc(N)cc2)CCC(=O)NC1=O` (stereo not given) [AMINOGLUTETHIMIDE], the AC50 (on Adenosine receptor A1; at B2 bradykinin receptor; in test [2]; on Cannabinoid receptor 1; on Histamine H2 receptor; at Progesterone receptor) was greater than 30 µM throughout.

On to `OC[C@H]1O[C@@H](n2cnc3c2NC=NC[C@H]3O)C[C@@H]1O` [PENTOSTATIN], for which the AC50 on Adenosine receptor A1 is 0.41 µM; on B2 bradykinin receptor, greater than 30 µM; in test [2] it was greater than 30 µM; at Cannabinoid receptor 1, greater than 30 µM; on Histamine H2 receptor it was greater than 30 µM; on Progesterone receptor, greater than 30 µM.

Regarding `C[N+](C)(C)CCOP(=O)([O-])OC[C@H](O)CO`, the AC50 (at Adenosine receptor A1; at B2 bradykinin receptor; in test [2]; on Cannabinoid receptor 1; at Histamine H2 receptor; at Progesterone receptor) was greater than 30 µM each time.

On Estrogen receptor, `NNCCc1ccccc1` [PHENELZINE] came in with an AC50 greater than 30 µM.

For `CC1=C(C(=O)OC(C)C)C(c2cccc([N+](=O)[O-])c2)C(C(=O)OC2CN(C(c3ccccc3)c3ccccc3)C2)=C(N)N1` (stereo not given) [AZELNIDIPINE], the AC50 was greater than 30 µM at Adenosine receptor A1; greater than 10 µM on B2 bradykinin receptor; greater than 30 µM in test [2]; greater than 30 µM on Cannabinoid receptor 1; greater than 30 µM at Histamine H2 receptor; greater than 3 µM on Progesterone receptor.

On Estrogen receptor, `CC(=O)OC[C@H]1O[C@@H](n2ncc(=O)[nH]c2=O)[C@H](OC(C)=O)[C@@H]1OC(C)=O` [AZARIBINE] had an AC50 greater than 30 µM.

In turn, `C=C1CC[C@H](O)C/C1=C/C=C1\CCC[C@]2(C)[C@@H]([C@H](C)CCCC(C)C)CC[C@@H]12` [CHOLECALCIFEROL] returned an AC50 at Estrogen receptor greater than 30 µM.

`Cc1ccc(C(=O)C(C)CN2CCCCC2)cc1` (stereo not given) [TOLPERISONE] came in with an AC50 at Estrogen receptor greater than 30 µM.

`NC[C@H]1CC[C@H](C(=O)Oc2ccc(CCC(=O)O)cc2)CC1` [CETRAXATE]: the AC50 (in test [2]; at Cannabinoid receptor 1; at Estrogen receptor; on Histamine H2 receptor) was greater than 30 µM throughout.

Consider `O=C(O)COCCN1CCN(C(c2ccccc2)c2ccc(Cl)cc2)CC1` (stereo not given) [CETIRIZINE], for which the AC50 at Adenosine receptor A1, at B2 bradykinin receptor, on Cannabinoid receptor 1 and at Estrogen receptor was greater than 30 µM in each case.

For the molecule `O=C1OC(OC(=O)c2cccnc2Nc2cccc(C(F)(F)F)c2)c2ccccc21` (stereo not given) [TALNIFLUMATE], the AC50 (on Adenosine receptor A1; at B2 bradykinin receptor; in test [2]; at Cannabinoid receptor 1; at Histamine H2 receptor; on Progesterone receptor) was greater than 30 µM throughout.

With `CCOC(=O)C1=C(C)NC(C)=C(C(=O)OCC)C1c1ccccc1/C=C/C(=O)OC(C)(C)C` [LACIDIPINE], the AC50 on Adenosine receptor A1 was greater than 30 µM; at B2 bradykinin receptor it was greater than 30 µM; in test [2] it was greater than 30 µM; at Cannabinoid receptor 1, greater than 30 µM; on Histamine H2 receptor, greater than 30 µM; at Progesterone receptor it was 29 µM.

For `CN(C)C/C=C/C(=O)Nc1cc2c(Nc3ccc(F)c(Cl)c3)ncnc2cc1O[C@H]1CCOC1` [AFATINIB], the AC50 (on Adenosine receptor A1; at B2 bradykinin receptor; in test [2]; on Cannabinoid receptor 1; on Histamine H2 receptor; at Progesterone receptor) was greater than 30 µM each time.

As to `CC(O)(CS(=O)(=O)c1ccc(F)cc1)C(=O)Nc1ccc(C#N)c(C(F)(F)F)c1` (stereo not given) [BICALUTAMIDE], the AC50 on Adenosine receptor A1 was greater than 30 µM; at B2 bradykinin receptor it was greater than 30 µM; in test [2], greater than 10 µM; at Cannabinoid receptor 1 it was greater than 30 µM; on Histamine H2 receptor, greater than 10 µM; at Progesterone receptor, greater than 30 µM.

On to `CNCCc1ccc(OC(=O)C(C)C)c(OC(=O)C(C)C)c1` [IBOPAMINE], for which the AC50 (at Adenosine receptor A1; on B2 bradykinin receptor; in test [2]; at Cannabinoid receptor 1; on Histamine H2 receptor; at Progesterone receptor) was greater than 30 µM in each case.
